Values of other authors, collected in paper PMC12308805, “Ultrahigh-Throughput Virtual Screening Strategies against PPI Targets: A Case Study of STAT Inhibitors” (Journal of Chemical Information and Modeling, 2025).
Numbered stars: 1 amine (or outer) side, 2 acyl side, 3 side chain; on linkers, the order of the positions; unused ones are H or OH. Square brackets hold non-standard residues; d marks the D form. Peptide text beside a SMILES is read from it. * marks the point of attachment. Phe(4-tetrazol-5-yl) = N[C@@H](Cc1ccc(-c2nnn[nH]2)cc1)C(=O)O; X2 = O=C([C@H](Cc1ccc(Cc2nn[nH]n2)cc1)N[*:1])[*:2]; X5 = O=C([C@@H]1[C@@H]2C[C@@H]2CN1[*:1])[*:2]; d(pY) = N[C@H](Cc1ccc(OP(=O)(O)O)cc1)C(=O)O; pY = N[C@@H](Cc1ccc(OP(=O)(O)O)cc1)C(=O)O; NH(1R-phenylethyl) = C[C@@H](N*)c1ccccc1; NH(1S-phenylethyl) = C[C@H](N*)c1ccccc1; X4 = O=C(/C=C/c1ccc(OP(=O)(O)O)cc1)*; d(aThr) = C[C@@H](O)[C@@H](N)C(=O)O; Hydrocinnamoyl = O=C(CCc1ccccc1)*; Hyp = O=C(O)[C@@H]1C[C@@H](O)CN1; Cha = N[C@@H](CC1CCCCC1)C(=O)O; Nle = CCCC[C@H](N)C(=O)O; Cbz = O=C(OCc1ccccc1)*; NHBn = c1ccc(CN*)cc1; Propionyl = CCC(=O)*; Bz = O=C(c1ccccc1)*

tested on: STAT3; settings: cited from earlier work

Row | Compound | Type (known STAT3 active)
1 | CC(=O)N[C@H](Cc1ccc(OP(=O)(O)O)cc1)C(=O)N[C@H](CC(C)C)C(=O)N1CCC[C@H]1C(=O)N[C@@H](CCC(N)=O)C(=O)N[C@@H](C)C(=O)N[C@H](C(N)=O)C(C)C [CHEMBL156407] (Ac-[d(pY)][dL]PQAV-NH2) | Active
2 | CC(=O)N[C@@H](Cc1ccc(OP(=O)(O)O)cc1)C(=O)N[C@@H](CC(C)C)C(=O)N1CCC[C@H]1C(=O)N[C@H](CCC(N)=O)C(=O)N[C@@H](C(N)=O)[C@H](C)O [CHEMBL160353] (Ac-[pY]LP[dQ][dT]-NH2) | Active
3 | CCC(=O)N[C@@H](Cc1ccc(OP(=O)(O)O)cc1)C(=O)N[C@@H](CC(C)C)C(=O)N1CCC[C@H]1C(=O)N[C@@H](CCC(N)=O)C(=O)N[C@H](C(N)=O)[C@@H](C)O [CHEMBL197580] (Propionyl-[pY]LPQT-NH2) | Active
4 | CC(C)C[C@H](NC(=O)/C=C/c1ccc(OP(=O)(O)O)cc1)C(=O)N1CCC[C@H]1C(=O)N[C@H](C(=O)NCc1ccccc1)[C@@H](C)OC(N)=O [CHEMBL376795] | Active
5 | CC(=O)N[C@@H](Cc1ccc(OP(=O)(O)O)cc1)C(=O)N[C@@H](CC(C)C)C(=O)N1CCC[C@H]1C(=O)N[C@@H](CCC(N)=O)C(=O)N[C@H](C(N)=O)[C@@H](C)O [CHEMBL382978] (Ac-[pY]LPQT-NH2) | Active
6 | CC(C)C[C@H](NC(=O)[C@H](Cc1ccc(OP(=O)(O)O)cc1)NC(=O)OCc1ccccc1)C(=O)N1CCC[C@H]1C(=O)N[C@@H](CCC(N)=O)C(=O)N[C@H](C(N)=O)[C@@H](C)O [CHEMBL435121] (Cbz-[pY]LPQT-NH2) | Active
7 | CC(=O)N[C@@H](Cc1ccc(OP(=O)(O)O)cc1)C(=O)N[C@@H](CC(C)C)C(=O)N1C[C@H]2C[C@H]2[C@H]1C(=O)N[C@@H](CCC(N)=O)C(=O)N[C@H](C(N)=O)[C@@H](C)O [CHEMBL436319] (Ac-[pY]L[X5]QT-NH2) | Active

same assay, conditions: sheet 6QHD_actives_decoys; known STAT3 actives of the retrospective screening set; ref ChEMBL / literature; cited from earlier work

Row | Compound | Type (known STAT3 active)
8 | CC(=O)N[C@@H](Cc1ccc(OP(=O)(O)O)cc1)C(=O)N[C@@H](CC(C)C)C(=O)N1CCC[C@@H]1C(=O)N[C@H](CCC(N)=O)C(=O)N[C@@H](C(=O)N[C@H](C)C(=O)O)[C@@H](C)O [CHEMBL157727] (Ac-[pY]L[dP][dQ][d(aThr)][dA]-OH) | Active
9 | CC(=O)N[C@@H](Cc1ccc(OP(=O)(O)O)cc1)C(=O)N[C@@H](CC(C)C)C(=O)N1CCC[C@H]1C(=O)N[C@H](CCC(N)=O)C(N)=O [CHEMBL160658] (Ac-[pY]LP[dQ]-NH2) | Active
10 | CSCC[C@H](NC(=O)[C@H](CCC(N)=O)NC(=O)[C@H]1CCCN1C(=O)[C@H](CCCCN)NC(=O)[C@H](Cc1ccc(OP(=O)(O)O)cc1)NC(C)=O)C(=O)N[C@@H](Cc1c[nH]cn1)C(N)=O [CHEMBL160733] (Ac-[pY]K[dP]QMH-NH2) | Active
11 | CC(=O)N[C@@H](Cc1ccc(OP(=O)(O)O)cc1)C(=O)N[C@@H](CC(C)C)C(=O)N1CCC[C@H]1C(=O)N[C@@H](CCC(N)=O)C(=O)N[C@H](C)c1ccccc1 [CHEMBL193433] (Ac-[pY]LPQ-{NH(1R-phenylethyl)}) | Active
12 | CC(=O)N[C@@H](Cc1ccc(OP(=O)(O)O)cc1)C(=O)N[C@@H](CC(C)C)C(=O)N1CCC[C@H]1C(=O)N[C@@H](CCC(N)=O)C(N)=O [CHEMBL194516] (Ac-[pY]LPQ-NH2) | Active
13 | CC(=O)N[C@@H](Cc1ccc(OP(=O)(O)O)cc1)C(=O)N[C@@H](CC(C)C)C(=O)N1CCC[C@H]1C(=O)N[C@@H](CCC(N)=O)C(=O)NCc1ccccc1 [CHEMBL194855] (Ac-[pY]LPQ-NHBn) | Active
14 | CCCC[C@H](NC(=O)[C@H](Cc1ccc(OP(=O)(O)O)cc1)NC(C)=O)C(=O)N1CCC[C@H]1C(=O)N[C@@H](CCC(N)=O)C(=O)N[C@H](C(N)=O)[C@@H](C)O [CHEMBL197513] (Ac-[pY][Nle]PQT-NH2) | Active
15 | CC(C)C[C@H](NC(=O)[C@H](Cc1ccc(OP(=O)(O)O)cc1)NC(=O)CCc1ccccc1)C(=O)N1CCC[C@H]1C(=O)N[C@@H](CCC(N)=O)C(=O)N[C@H](C(N)=O)[C@@H](C)O [CHEMBL197844] (Hydrocinnamoyl-[pY]LPQT-NH2) | Active
16 | C1=Cc2nc1cc1ccc([nH]1)c(-c1ccccc1)c1nc(cc3ccc([nH]3)c2-c2ccccc2)C=C1 [CHEMBL207155] | Active
17 | CC(=O)N[C@@H](Cc1ccc(OC(C(=O)O)C(=O)O)cc1)C(=O)N[C@@H](CC(C)C)C(=O)N1CCC[C@H]1C(=O)N[C@@H](CCC(N)=O)C(=O)N[C@H](C(=O)N[C@H](C(=O)O)C(C)C)[C@@H](C)O [CHEMBL231705] | Active
18 | CC(=O)N[C@@H](Cc1ccc(Cc2nn[nH]n2)cc1)C(=O)N[C@@H](CC(C)C)C(=O)N1CCC[C@H]1C(=O)N[C@@H](CCC(N)=O)C(=O)N[C@H](C(=O)N[C@H](C(=O)O)C(C)C)[C@@H](C)O [CHEMBL233355] (Ac-[X2]LPQTV-OH) | Active
19 | CC(C)C[C@H](NC(=O)/C=C/c1ccc(OP(=O)(O)O)cc1)C(=O)N1CCC[C@H]1C(=O)N[C@@H](CCC(N)=O)C(=O)NCc1ccccc1 [CHEMBL267246] | Active
20 | CSCC[C@H](NC(=O)[C@H](C)NC(=O)[C@H](CCC(N)=O)NC(=O)[C@@H]1CCCN1C(=O)[C@@H](CCCN=C(N)N)NC(=O)[C@@H](Cc1ccc(OP(=O)(O)O)cc1)NC(C)=O)C(N)=O [CHEMBL345419] (Ac-[d(pY)][dR]PQAM-NH2) | Active
21 | CNC(=O)[C@H](CCC(N)=O)NC(=O)[C@@H]1CCCN1C(=O)[C@H](CC(C)C)NC(=O)[C@H](Cc1ccc(OP(=O)(O)O)cc1)NC(C)=O [CHEMBL370095] (Ac-[pY]LPQ-NHMe) | Active
22 | CC(=O)N[C@@H](Cc1ccc(OP(=O)(O)O)cc1)C(=O)N[C@@H](CC(C)C)C(=O)N1CCC[C@H]1C(=O)N[C@@H](CCC(N)=O)C(=O)N[C@@H](C)c1ccccc1 [CHEMBL370208] (Ac-[pY]LPQ-{NH(1S-phenylethyl)}) | Active
23 | CC(C)C[C@H](NC(=O)[C@H](Cc1ccc(OP(=O)(O)O)cc1)NC(=O)CCc1ccccc1)C(=O)N1C[C@H]2C[C@H]2[C@H]1C(=O)N[C@@H](CCC(N)=O)C(=O)NCc1ccccc1 [CHEMBL370763] | Active

Row | Compound | Type (known STAT3 active)
24 | CC(=O)N[C@@H](Cc1ccc(OP(=O)(O)O)cc1)C(=O)N[C@@H](CC1CCCCC1)C(=O)N1CCC[C@H]1C(=O)N[C@@H](CCC(N)=O)C(=O)N[C@H](C(N)=O)[C@@H](C)O [CHEMBL371871] (Ac-[pY][Cha]PQT-NH2) | Active
25 | CC(=O)N[C@@H](Cc1ccc(OP(=O)(O)O)cc1)C(=O)N[C@@H](CC(C)C)C(=O)N1C[C@H](O)C[C@H]1C(=O)N[C@@H](CCC(N)=O)C(=O)N[C@H](C(N)=O)[C@@H](C)O [CHEMBL372429] (Ac-[pY]L[Hyp]QT-NH2) | Active
26 | CC(=O)N[C@@H](Cc1ccc(OP(=O)(O)O)cc1)C(=O)N[C@@H](CC(C)C)C(=O)N1CCC[C@H]1C(=O)N[C@@H](CCC(N)=O)C(=O)O [CHEMBL382544] (Ac-[pY]LPQ-OH) | Active
27 | CC(C)C[C@H](NC(=O)/C=C/c1ccc(OP(=O)(O)O)cc1)C(=O)N1CCC[C@H]1C(=O)N[C@@H](COC(N)=O)C(=O)NCc1ccccc1 [CHEMBL414034] | Active
28 | CC(=O)N[C@@H](Cc1ccc(OCC(=O)O)cc1)C(=O)N[C@@H](CC(C)C)C(=O)N1CCC[C@H]1C(=O)N[C@@H](CCC(N)=O)C(=O)N[C@H](C(=O)N[C@H](C(=O)O)C(C)C)[C@@H](C)O [CHEMBL414897] | Active
29 | CC(C)C[C@H](NC(=O)[C@H](Cc1ccc(OP(=O)(O)O)cc1)NC(=O)c1ccccc1)C(=O)N1CCC[C@H]1C(=O)N[C@@H](CCC(N)=O)C(=O)N[C@H](C(N)=O)[C@@H](C)O [CHEMBL425571] (Bz-[pY]LPQT-NH2) | Active
30 | CC(=O)N[C@@H](Cc1ccc(-c2nn[nH]n2)cc1)C(=O)N[C@@H](CC(C)C)C(=O)N1CCC[C@H]1C(=O)N[C@@H](CCC(N)=O)C(=O)N[C@H](C(=O)N[C@H](C(=O)O)C(C)C)[C@@H](C)O [CHEMBL439390] (Ac-[Phe(4-tetrazol-5-yl)]LPQTV-OH) | Active
31 | NC(=O)CC[C@H](NC(=O)[C@@H]1CC[C@@H]2CC[C@H](NC(=O)/C=C/c3ccc(OP(=O)(O)O)cc3)C(=O)N21)C(=O)NCc1ccccc1 [CHEMBL445970] | Active
32 | CC(C)NC(=O)[C@H](CCC(N)=O)NC(=O)[C@@H]1Cc2cccc3c2N1C(=O)[C@@H](NC(=O)/C=C/c1ccc(OP(=O)(O)O)cc1)CC3 [CHEMBL447460] | Active
33 | NC(=O)CC[C@H](NC(=O)[C@@H]1Cc2cccc3c2N1C(=O)[C@@H](NC(=O)/C=C/c1ccc(OP(=O)(O)O)cc1)CC3)C(N)=O [CHEMBL449511] | Active
34 | NC(=O)CC[C@H](NC(=O)[C@@H]1Cc2cccc3c2N1C(=O)[C@@H](NC(=O)/C=C/c1ccc(OP(=O)(O)O)cc1)CC3)C(=O)NCc1ccccc1 [CHEMBL449547] | Active
35 | NC(=O)CC[C@H](NC(=O)[C@@H]1Cc2cccc3c2N1C(=O)[C@@H](NC(=O)c1cc2cc(OP(=O)(O)O)ccc2[nH]1)CC3)C(=O)NCc1ccccc1 [CHEMBL452194] | Active
36 | CNC(=O)[C@H](CCC(N)=O)NC(=O)[C@@H]1Cc2cccc3c2N1C(=O)[C@@H](NC(=O)/C=C/c1ccc(OP(=O)(O)O)cc1)CC3 [CHEMBL454365] | Active
37 | CC(C)C[C@H](NC(=O)/C=C/c1ccc(OP(=O)(O)O)cc1)C(=O)N1CCC[C@H]1C(=O)N[C@@H](CCC(N)=O)C(=O)N[C@H](C(N)=O)[C@@H](C)O [CHEMBL470227] (X4-LPQT-NH2) | Active
38 | O=C(O)CCCNC(=O)[C@@H]1Cc2cccc3c2N1C(=O)[C@@H](NC(=O)/C=C/c1ccc(OP(=O)(O)O)cc1)CC3 [CHEMBL475488] | Active
